Source: patent US5120870A, “Emulsion of lipid containing a prostaglandin analogue” (priority 1989, dated 1992)

Assays:
[1] = Stability of the PG analogue during the preparation of the emulsion (HPLC); assay type: physicochemical; details: lipid emulsion prepared at 90° C., final concentration 5 μg/ml
Description: To 500 μg of the PG analogue of the formula (2) of the present invention produced as described above, 10 g of purified soybean oil and 1.2 g of purified yolk lecitin were added, and the mixture was melted under heating at 90° C. by means of a homogenizer at 90° C. Then, 2.5 g of glycerol and 90 ml of distilled water for injection were added thereto, followed by rough emulsification by means of a homogenizer at […]. The product is then emulsified by means of a manton gaulin type homogenizer to obtain an emulsion having a final concentration of 5 μg/ml.
The stability of the PG analogue of the present invention during the preparation of the emulsion and the storage stability of the emulsion were measured, and the results are shown in Table 3.
The stability during the preparation and the remaining rate in the storage stability was measured by a separation quantitative analysis by means of high performance liquid chromatography, and the ratio of the measured amount relative to the amount at the initiation of the test was taken as the remaining rate.

[2] = Storage stability of the emulsion (HPLC); assay type: physicochemical; details: for Storage stability: Decomposition reaction rate constant: 40° C., calculated from change with time of remaining rate; for Storage stability: Remaining rate: emulsion stored 4 weeks at 40° C., 40320 min
Description: | Storage stability: | Stored for 4 weeks under a temperature condition of 40° C., and th | remaining rate (%) after the 4 weeks was measured. Further, from the | change with time of the remaining rate, the decomposition reaction rate | constant was calculated. The stability during the preparation and the remaining rate in the storage stability was measured by a separation quantitative analysis by means of high performance liquid chromatography, and the ratio of the measured amount relative to the amount at the initiation of the test was taken as the remaining rate.

[3] = system: platelet aggregation; test: Platelet aggregation inhibiting effect, ADP-induced, platelet rich plasma; assay type: cell-based; details: 20 μM ADP, relative to physiological saline
Description: Further, the platelet aggregation inhibiting effects were measured as follows, and the results are shown also in Table 3.
Using sodium citrate (3.8%), peripheral blood was collected (blood 9, sodium citrate 1). This peripheral blood was subjected to centrifugal separation at 1000 rpm for 10 minutes to obtain a platelet rich plasma, and the rest was subjected to centrifugal separation at 3000 rpm for 20 minutes to obtain a plate poor plasma. To 225 μl of the platelet rich plasma, 50 μl of a test sample was added. One minute later, platelet aggregation was induced with 20 μMADP solution 25, whereupon the aggregation inhibitory rate (%) was calculated based on the aggregation rate when a physiological saline solution was added instead of the test sample, being rated as 100%.

[4] = system: human platelet aggregation; details: Table 1(b), activity of PGE1 rated 100, cited from earlier work; for Inhibitory effects against human platelet aggregation (relative activity): (no incubation stated)
[5] = 1.6% BSA-saline solution, mean ± SE, n = 4-7, cited from earlier work

CCCCOC(=O)CCCCCCC1=C(OC(C)=O)C[C@@H](O)[C@@H]1/C=C/[C@@H](O)C[C@@H](C)CCCC [Example 1, butyl 9-actoxy-11α,15S-dihyroxy-17S,20-dimethylprosta-8-13E-diene-1-oate]
Stability during the preparation [1]: 75.6% | Storage stability: Decomposition reaction rate constant [2]: 6.20 d^-1 × 10^3 | Storage stability: Remaining rate [2]: 84.8% | Platelet aggregation inhibitory effects [3]: 37%

CCCCC[C@H](O)/C=C/[C@@H]1C(CCCCCCC(=O)OC)=C(OC(C)=O)C[C@H]1O [Example 2, methyl 9-acetoxy-11α,15S-dihydroxyprosta-9,13E-diene-1-oate]
Stability during the preparation [1]: 70.4% | Storage stability: Decomposition reaction rate constant [2]: 11.8 d^-1 × 10^3 | Storage stability: Remaining rate [2]: 72.7% | Platelet aggregation inhibitory effects [3]: 100%

CCCCC[C@H](O)/C=C/[C@@H]1C(CCCCCCC(=O)OCCCC)=C(OC(C)=O)C[C@H]1O [Example 3, butyl 9-acetoxy-11α,15S-dihydroxyprosta-8,13E-diene-1-oate]
Stability during the preparation [1]: 72.1% | Storage stability: Decomposition reaction rate constant [2]: 8.30 d^-1 × 10^3 | Storage stability: Remaining rate [2]: 80.1% | Platelet aggregation inhibitory effects [3]: 93%

CCCC[C@H](C)C[C@H](O)/C=C/[C@@H]1C(CCCCCCC(=O)OC)=C(OC(C)=O)C[C@H]1O [Example 4, methyl 9-acetoxy-11α,15S-dihyroxy-17S,20-dimethylprosta-8,13E-diene-1-oate]
Stability during the preparation [1]: 68.3% | Storage stability: Decomposition reaction rate constant [2]: 8.87 d^-1 × 10^3 | Storage stability: Remaining rate [2]: 77.9% | Platelet aggregation inhibitory effects [3]: 44%

CCCCC[C@H](O)/C=C/[C@H]1[C@H](O)CC(=O)[C@@H]1CCCCCCC(=O)OCCCC [PGE1 butyl ester]
Inhibitory effects against human platelet aggregation (relative activity) [4]: 29 | Inhibitory effects against human platelet aggregation (relative activity), after incubating in human serum for 20 min [4]: 89 | % of PGE1 (or ester) liberated from LM, 1 min incubation [5]: 60.5 ± 4.0% | % of PGE1 (or ester) liberated from LM, 10 min incubation [5]: 65.3 ± 5.6%

CCCCC[C@H](O)/C=C/[C@H]1[C@H](O)CC(=O)[C@@H]1CCCCCCC(=O)OCC [PGE1 ethyl ester]
Inhibitory effects against human platelet aggregation (relative activity) [4]: 20 | Inhibitory effects against human platelet aggregation (relative activity), after incubating in human serum for 20 min [4]: 28 | % of PGE1 (or ester) liberated from LM, 1 min incubation [5]: 82.0 ± 8.8% | % of PGE1 (or ester) liberated from LM, 10 min incubation [5]: 125.4 ± 11.7%

CCCCC[C@H](O)/C=C/[C@H]1[C@H](O)CC(=O)[C@@H]1CCCCCCC(=O)OC [PGE1 methyl ester]
Inhibitory effects against human platelet aggregation (relative activity) [4]: 23 | Inhibitory effects against human platelet aggregation (relative activity), after incubating in human serum for 20 min [4]: 51 | % of PGE1 (or ester) liberated from LM, 1 min incubation [5]: 82.5 ± 3.8% | % of PGE1 (or ester) liberated from LM, 10 min incubation [5]: 80.4 ± 2.9%

CCCCCCCCOC(=O)CCCCCC[C@H]1C(=O)C[C@@H](O)[C@@H]1/C=C/[C@@H](O)CCCCC [PGE1 octyl ester]
Inhibitory effects against human platelet aggregation (relative activity), after incubating in human serum for 20 min [4]: 4

CCCCC[C@H](O)/C=C/[C@H]1[C@H](O)CC(=O)[C@@H]1CCCCCCC(=O)O [PGE1]
Stability during the preparation [1]: 43.9% | Storage stability: Decomposition reaction rate constant [2]: 113 d^-1 × 10^3 | Storage stability: Remaining rate [2]: 4.6% | Platelet aggregation inhibitory effects [3]: 55%
